According to US20160194274A1, “PHENANTHRENE DERIVATIVES FOR USE AS MEDICAMENTS” (VALENTIA BIOPHARMA, priority 2012, published 2016):
Entries after “also recorded” stand apart in the source; their conditions may differ.

How the values were obtained:
[1] = tested on: MBNL1; assay: Visualization and quantification of MBNL1 release in DM1 fibroblasts; type: cell-based, human; conditions: 100 μM
Description: FIG. 4. Visualization and quantification of MBNL1 release (A). Visualization of MBNL1 release for VLT002: Upper row: Untreated DM1 fibroblasts with MBNL1 localizing as ribonuclear foci (see dots in middle and right pictures) to the nucleus (DAPI, detected as gray spherical shadow in left and right pictures). […] (B) Quantification of the area (into the nucleus), where MBNL1 present (Photoshop software), reflects the MBNL1 release after VLT002, VLT025, VLT045, VLT049 and VLT040 treatment (100 μM).
At the same time human cells were recollected for foci counting. Some (150,000-300,000) were prepared for Muscleblind (MBNL1) detection (see FIG. 4). After PBS washes, cells were probed overnight, at 4° C. with anti-MBNL1 antibody (1:5000 dilutions, A2764 antibody) in 1×PBS. After washing cells with 1×PBS, cells were incubated with goat anti-rabbit Alexa 488 (1:500 dilution) for 2 h at RT. Cells were washed 2 times, for 10 min at room temperature with 1×PBS and then mounted onto glass slides using a hard-set mounting media that contains DAPI (Vectashield). Cells were imaged on a Leica microscope.

[2] = tested on: cTNT exon 5 splicing; assay: RT-PCR of cTNT splicing event in human myoblasts; type: cell-based
Description: FIG. 5. Recovering of DM1 aberrant cTNT splicing event. […] Upper section, right: Recovering was significant at 25 μM.
Additional assays involved: • Reverse Transcription-PCR (RT-PCR) to detect levels of normal/aberrant splicing events in specific genes. This approach was performed in human cells from patients (see FIG. 5) or from DM1 mouse (see FIG. 8 up) (HSA^LR, Mankodi A et al., Science, 289:1769-1773 (2000)) tissues (skeletal muscle), from which total RNA was extracted from ˜0.5-1.5×10^5 cells using the Zygem Tissue Plus kit. Serca 1, Cypher or cTNNT genes reverse transcription were performed and quantification of normal/aberrant spliced band forms was obtained (ImageJ software) after running PCR products in 2% agarose gels. As shown in FIGS. 5 and 8 compounds of the invention are able to recover disease phenotypes. • Drosophila Muscle Histology, where five-day old Drosophila thoraces were embedded in Epon for transversal, semi-thin sectioning. Muscle area was quantified (see FIG. 3) by binarizing images (equal dimensions) and quantifying pixels (%) within muscle tissue with ImageJ software. […] A minimum of 8 flies were analyzed in each case.

[3] = tested on: Serca1 exon 22 splicing; assay: Semi-quantitative RT-PCR of Serca1 splicing in HSA LR mouse skeletal muscle; type: in vivo; conditions: three days a/i
Description: (§1) FIG. 8. Recovering of disease phenotypes (molecular, histological and functional) in in vivo DM1 mice (HSA^LR). Upper section: VLT002 and VLT025 suppressed splicing defects in DM1 mouse skeletal muscles. VLT002 (10 μg) and VLT025 (100 μg) were intramuscular injected in the right tibialis anterior (TA) and left quadriceps (Q), respectively, of HSA^LR mice that expressed 300 CTG repeats. […] All graphs show the mean and SEM from VLT002 and VLT025-responsive animals. Middle section: Immunofluorescent detection of trans-membrane Clcn1 protein (cell outlines in gray) in quadriceps sections of no-DM1 mouse (control) and HSA^LR mice without treatment (10150.5 QD-DMSO treated) and after VLT025 treatment (10150.5 QI).
Additional assays involved: • Reverse Transcription-PCR (RT-PCR) to detect levels of normal/aberrant splicing events in specific genes. […] Serca 1, Cypher or cTNNT genes reverse transcription were performed and quantification of normal/aberrant spliced band forms was obtained (ImageJ software) after running PCR products in 2% agarose gels. […] Muscle area was quantified (see FIG. 3) by binarizing images (equal dimensions) and quantifying pixels (%) within muscle tissue with ImageJ software. […] A minimum of 8 flies were analyzed in each case.

[4] = tested on: CCUG FAM-RNA probe; assay: Gel retardation assay with FAM-CCUG probe (DM2); type: binding
Description: (§2) FIG. 9. VLT002 binding assessment in additional toxic repeats linked to disease through hairpin formation.
(§3) Fluorescence Electrophoretic Mobility Shift Assay to test RNA-compound binding. Briefly, an aliquot of carboxyfluorescein (FAM)-CUG10 RNA (DM1, HDL2, SCA8; see FIG. 6) was heated at 70° C. for 5 min and diluted to 300 nM. The binding reaction with compounds was then carried out as described in (Garcia-Lopez A et al. Proc. Natl. Acad. Sci. USA. 108(29):11866-71 (2011)). The reaction mix was loaded onto 8% polyacrylamide nondenaturing gels, and electrophoresis was conducted at 4° C. in TB 1× for approximately 30 min at 240V, followed by fluorescence visualization. Quantification of the free RNA band intensity was carried out using the ImageJ software. A non-linear regression analysis was used to calculate EC50, based on a total of three experimental replicates. Same approach was developed with (FAM)-CCUG8 (DM2), CAG10 (SCA3), CGG10 (FXTAS), GGGGCC5 (ALS/FSD), UGGAA6 (SCA31) probes (see FIG. 9).

[5] = tested on: CAG FAM-RNA probe; assay: Gel retardation assay with FAM-CAG probe (SCA3); type: binding
Description: as §2, §3

[6] = tested on: CGG FAM-RNA probe; assay: Gel retardation assay with FAM-CGG probe (FXTAS); type: binding
Description: as §2, §3

[7] = tested on: GGGGCC FAM-RNA probe; assay: Gel retardation assay with FAM-GGGGCC probe (FTD/ALS); type: binding
Description: as §2, §3

[8] = tested on: UGGAA FAM-RNA probe; assay: Gel retardation assay with FAM-UGGAA probe (SCA31); type: binding
Description: as §2, §3

[9] = tested on: FAM-CUU probe; assay: Gel retardation assay with FAM-CUU probe (negative control); type: binding
[10] = tested on: Clcn1 protein; assay: Immunofluorescent detection of Clcn1 protein in HSA LR mouse quadriceps; type: in vivo; conditions: 100 μg
Description: as §1
Also, an immunohistochemistry approach was used to measure ClC-1 protein levels (see FIG. 8 middle) in mouse tissues (skeletal muscle). Briefly, frozen sections of tibialis anterior & quadriceps muscle were prepared for routine immunostaining by using antibody against the ClC-1 protein (Alpha Diagnostic, San Antonio, Tex.). Primary antibody concentration used was 1:50 for ClC-1. Secondary antibody was goat anti-rabbit Alexa Fluor 488 and 546 (Invitrogen) at 1:400. Stacks of Z plane images were processed by using a blind point spread function. […]

| Compound | MBNL1 sequestration / MBNL1 release (nuclear area where MBNL1 present) [1] | formation of foci (MBNL1 ribonuclear foci) [1] | recovering of normal cTNT splicing (ex5 exclusion) ([2]; DM1 myoblasts, 25 μM) | expression of housekeeping gene (GAPDH) ([2]; human myoblasts) | levels of cTNT exon 5 exclusion in no DM1 cells ([2]; no DM1 human myoblasts, dose-response) | splicing defects (exon 22) of Serca1 ([3]; 10 μg intramuscular, right tibialis anterior) | binding to CCUG (DM2) probe [4] | binding to CAG (SCA3) probe [5] | binding to CGG (FXTAS) probe [6] | binding to GGGGCC (FTD/ALS) probe [7] | binding to UGGAA (SCA31) probe [8] | binding to FAM-CUU probe [9] | splicing defects (exon 22) of Serca1 ([3]; 100 μg intramuscular, left quadriceps) | Clcn1 fluorescent signal vs DMSO-treated contra-lateral limb [10] |
| --- | --- | --- | --- | --- | --- | --- | --- | --- | --- | --- | --- | --- | --- | --- |
| CN(C)CCc1cc2c(c3c1ccc1ccccc13)OCO2 [VLT002, Stephenanthrine] | MBNL1 sequestration is relieved; also recorded: relieve MBNL1 sequestration | reduced formation of the foci; also recorded: effectively reduce the formation of foci | partial recovering | No expression changes | no changes | partially reversed splicing defects | caused retention of the complex in the well | caused retention of the complex in the well | caused retention of the complex in the well | caused retention of the complex in the well | caused retention of the complex in the well | did not bind |  |  |
| C[N+](C)(C)CCc1cc2c(c3c1ccc1ccccc13)OCO2 [VLT025] | relieve MBNL1 sequestration | effectively reduce the formation of foci |  |  |  |  |  |  |  |  |  |  | partially reversed splicing defects | significantly stronger |
